Results: US20180215734A1, “PYRIMIDINE DERIVATIVES AS KINASE INHIBITORS AND THEIR THERAPEUTICAL APPLICATIONS” (NantBioScience, Inc., priority 2016, published 2018)

Tests used:
FGFR1(h) = FGFR1(h) (Homo sapiens, UniProt P11362); assay: Kinase assay, FGFR1(h); format: biochemical; conditions: 1 μM
Description: (§1) Kinase assay protocols well known to those of ordinary skill in the art were used. Specifically, the buffer composition was as follows: 20 mM MOPS, 1 mM EDTA, 0.01% Brij-35, 5% Glycerol, 0.1% β-mercaptoethanol, 1 mg/mL BSA. Test compounds were initially dissolved in DMSO at the desired concentration, then serially diluted to the kinase assay buffer. In a final reaction volume of 25 μL FGFR1(h) (5-10 mU) and KDR(h) (5-10 mU) are incubated with 8 mM MOPS pH 7.0, 0.2 mM EDTA, 200 μM LRRASLG (Kemptide), 10 mM magnesium acetate and [γ^33P-ATP]. The reaction was initiated by the addition of the MgATP mix. After incubation for 40 minutes at room temperature, the reaction was stopped by addition of 5 μL of a 3% phosphoric acid solution. Ten L of the reaction was then spotted onto a P30 filter mat and washed three times for 5 minutes in 50 mM phosphoric acid and once in methanol prior to drying and scintillation counting. Wells containing substrate but no kinase and wells containing a phosphopeptide control were used to set 0% and 100% phosphorylation value, respectively.
(§2) Of all of the steps in developing a drug, the hardest is finding promising compounds. (See, e.g., Malo et al., “Statistical practice in high-throughput screening data analysis,” Nature Biotechnology, 2006, 24, 167-75.) Kinase inhibitors often also have an anti-proliferative effect. […] The kinase inhibitory activity Compound 19 was tested using the kinase assay described in Example 3. […] These mutations in the tested kinases are thought to play an important role in transformation of some cancers.

KDR(h) = KDR(h) (Homo sapiens, UniProt P35968); assay: Kinase assay, KDR(h); format: biochemical
KDR(h), sequence (P35968 20-1356): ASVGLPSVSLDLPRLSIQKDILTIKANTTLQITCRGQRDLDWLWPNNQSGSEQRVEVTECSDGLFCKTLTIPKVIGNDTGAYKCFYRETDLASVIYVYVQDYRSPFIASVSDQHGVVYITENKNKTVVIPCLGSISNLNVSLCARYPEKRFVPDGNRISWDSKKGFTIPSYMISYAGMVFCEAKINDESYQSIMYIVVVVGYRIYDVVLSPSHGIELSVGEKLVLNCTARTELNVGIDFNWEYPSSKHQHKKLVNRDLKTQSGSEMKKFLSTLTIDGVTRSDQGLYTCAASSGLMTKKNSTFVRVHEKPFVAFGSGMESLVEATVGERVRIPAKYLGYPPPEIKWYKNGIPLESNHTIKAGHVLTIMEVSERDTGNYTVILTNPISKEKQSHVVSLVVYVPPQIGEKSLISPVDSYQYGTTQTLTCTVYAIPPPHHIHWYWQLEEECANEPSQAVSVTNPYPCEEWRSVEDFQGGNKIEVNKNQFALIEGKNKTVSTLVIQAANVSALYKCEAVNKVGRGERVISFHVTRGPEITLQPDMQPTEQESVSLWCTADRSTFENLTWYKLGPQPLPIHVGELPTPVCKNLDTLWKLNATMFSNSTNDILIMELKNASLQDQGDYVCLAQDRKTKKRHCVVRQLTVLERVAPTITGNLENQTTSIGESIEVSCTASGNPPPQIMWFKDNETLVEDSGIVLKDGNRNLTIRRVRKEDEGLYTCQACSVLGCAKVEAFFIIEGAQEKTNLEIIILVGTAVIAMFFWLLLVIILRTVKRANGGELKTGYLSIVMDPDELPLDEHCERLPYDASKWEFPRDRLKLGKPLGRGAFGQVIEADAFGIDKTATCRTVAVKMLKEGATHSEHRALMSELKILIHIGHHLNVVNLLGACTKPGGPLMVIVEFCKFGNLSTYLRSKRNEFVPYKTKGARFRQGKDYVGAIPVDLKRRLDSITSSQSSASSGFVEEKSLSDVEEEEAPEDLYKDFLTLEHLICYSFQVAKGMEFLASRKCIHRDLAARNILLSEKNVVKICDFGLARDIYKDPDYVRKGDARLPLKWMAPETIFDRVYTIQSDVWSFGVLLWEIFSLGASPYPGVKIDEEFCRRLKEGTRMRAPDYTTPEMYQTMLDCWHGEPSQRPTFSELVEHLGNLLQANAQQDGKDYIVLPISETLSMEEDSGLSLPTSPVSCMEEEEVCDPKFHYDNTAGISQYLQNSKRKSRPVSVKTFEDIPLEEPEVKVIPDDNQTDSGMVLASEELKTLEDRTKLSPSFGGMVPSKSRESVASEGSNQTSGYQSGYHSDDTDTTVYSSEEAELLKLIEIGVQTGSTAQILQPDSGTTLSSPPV
Description: as §1, §2

KG1a = assay: Inhibition of proliferation (CellTiterblue, 72 hr), KG1a; format: cell-based, human; conditions: Homo sapiens, KG-1a; 72 hr
Description: A number of studies were performed to analyze the consequences of tyrosine kinase inhibition in cell lines. To do this, 1000 cells are seeded in 27 μl/well in 384-well microplates, which are then placed in a humidified CO2 incubator at 37° C. overnight. The next day, 3 μl/well of 10× concentrated drug is added and the plates are returned to the incubator for 72 hr. After 72 hr incubation, plates are removed and 6 μl/well CellTiterblue (Promega) viability reagent is added. Plates are returned to the incubator for 3 hrs, after which fluorescence measurements are read on the Victor X3 plate reader (Perkin Elmer). Data are analyzed using Excel (Microsoft), and GI50 values are determined using Prism (Graphpad).

FGFR1(h), sequence (P11362 22-822): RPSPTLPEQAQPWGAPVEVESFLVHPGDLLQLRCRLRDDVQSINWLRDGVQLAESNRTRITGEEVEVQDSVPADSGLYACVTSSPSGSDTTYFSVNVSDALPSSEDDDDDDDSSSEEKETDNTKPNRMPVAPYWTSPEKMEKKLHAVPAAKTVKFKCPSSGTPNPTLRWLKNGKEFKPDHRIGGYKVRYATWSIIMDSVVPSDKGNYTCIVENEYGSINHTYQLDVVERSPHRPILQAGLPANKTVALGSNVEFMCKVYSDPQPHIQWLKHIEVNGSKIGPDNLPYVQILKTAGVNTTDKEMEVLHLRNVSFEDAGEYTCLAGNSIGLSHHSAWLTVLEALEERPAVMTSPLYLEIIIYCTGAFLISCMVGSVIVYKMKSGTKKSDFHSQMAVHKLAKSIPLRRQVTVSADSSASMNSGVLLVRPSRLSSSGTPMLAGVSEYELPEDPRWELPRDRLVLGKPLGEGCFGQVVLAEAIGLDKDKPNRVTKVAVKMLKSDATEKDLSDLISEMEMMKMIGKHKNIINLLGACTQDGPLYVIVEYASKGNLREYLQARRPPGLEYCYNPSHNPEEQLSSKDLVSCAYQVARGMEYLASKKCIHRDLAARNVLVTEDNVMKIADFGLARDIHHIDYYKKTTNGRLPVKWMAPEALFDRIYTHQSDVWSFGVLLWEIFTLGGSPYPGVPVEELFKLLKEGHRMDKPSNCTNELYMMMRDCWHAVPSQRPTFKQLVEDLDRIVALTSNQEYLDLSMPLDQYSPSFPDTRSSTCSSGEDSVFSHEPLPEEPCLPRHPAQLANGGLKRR

| SMILES | inhibition at 1 µM (FGFR1(h)) [%] | inhibition at 1 µM (KDR(h)) [%] | GI50 (KG1a) [nM] |
| --- | --- | --- | --- |
| COc1cc(N2CCN(C)CC2)ccc1Nc1ncnc(Oc2ccc3[nH]c(C)cc3c2F)c1C#N [Compound 1] | 99 | 96 | 49 |
| CCN1CCN(c2ccc(Nc3ncnc(Oc4ccc5[nH]c(C)cc5c4F)c3C(F)F)cc2)CC1 [Compound 5] | 26 | 9 |  |
| Cc1cc2c(F)c(Oc3ncnc(Nc4ccc(C(=O)N5CCN(C)CC5)cc4)c3C#N)ccc2[nH]1 [Compound 6] | 85 | 95 |  |
| Cc1cc2c(F)c(Oc3ncnc(Nc4ccc(N5CCN(C)CC5)c(C(F)(F)F)c4)c3C#N)ccc2[nH]1 [Compound 7] | 49 | 94 |  |
| Cc1cc2c(F)c(Oc3ncnc(Nc4ccc(N5CCNCC5)c(F)c4)c3C#N)ccc2[nH]1 [Compound 9] | 100 | 96 | 314 |
| Cc1cc2c(F)c(Oc3ncnc(Nc4ccc(CN5CCNCC5)cc4)c3C#N)ccc2[nH]1 [Compound 10] | 34 | 23 |  |
| Cc1cc2c(F)c(Oc3ncnc(Nc4ccc(N5CCC(N(C)C)CC5)cc4)c3C#N)ccc2[nH]1 [Compound 11] | 100 | 96 | 25 |
| Cc1cc2c(F)c(Oc3ncnc(Nc4ccc(N5C[C@@H](C)N[C@@H](C)C5)c(F)c4)c3C#N)ccc2[nH]1 [Compound 16] | 100 | 96 | 15 |
| Cc1cc2c(F)c(Oc3ncnc(Nc4ccc(N5CCN(CC(F)(F)F)CC5)cc4)c3C#N)ccc2[nH]1 [Compound 18] | 76 | 92 |  |
| Cc1cc2c(F)c(Oc3ncnc(Nc4ccc(N5CCCCC5)cc4)c3C#N)ccc2[nH]1 [Compound 24] | 86 | 95 |  |
| Cc1cc2c(F)c(Oc3ncnc(Nc4ccc(NS(C)(=O)=O)cc4)c3C#N)ccc2[nH]1 [Compound 26] | 97 | 96 |  |
| Cc1cc2c(F)c(Oc3ncnc(Nc4ccc(N5CCNC(=O)C5)cc4)c3C#N)ccc2[nH]1 [Compound 27] | 99 | 97 |  |
| Cc1cc2c(F)c(Oc3ncnc(Nc4ccc(N5CCCS5(=O)=O)cc4)c3C#N)ccc2[nH]1 [Compound 28] | 99 | 96 | 226 |
| CC(=O)N(C)c1ccc(Nc2ncnc(Oc3cc(F)c4[nH]c(C)cc4c3F)c2C#N)cc1 [Compound 32] | 92 | 69 |  |
| CNC(=O)c1ccc(Nc2ncnc(Oc3cc(F)c4[nH]c(C)cc4c3F)c2C#N)cc1 [Compound 37] | 99 | 70 |  |
| Cc1cc2c(F)c(Oc3ncnc(Nc4ccc(F)cc4)c3C#N)cc(F)c2[nH]1 [Compound 39] | 91 | 36 |  |
| Cc1cc2c(F)c(Oc3ncnc(Nc4ccc(Cl)cc4)c3C#N)cc(F)c2[nH]1 [Compound 40] | 78 | 20 |  |
| Cc1cc2c(F)c(Oc3ncnc(Nc4ccc(N5CCCC5=O)cc4)c3C#N)cc(F)c2[nH]1 [Compound 41] | 101 | 96 | 180 |
| Cc1cc2c(F)c(Oc3ncnc(Nc4ccccc4O)c3C#N)cc(F)c2[nH]1 [Compound 43] | 97 | 76 |  |
| CCC(=O)Nc1cccc(Nc2ncnc(Oc3cc(F)c4[nH]c(C)cc4c3F)c2C#N)c1 [Compound 52] | 101 | 91 | 174 |
| Cc1cc2c(F)c(Oc3ncnc(Nc4ccc(C#N)cc4)c3C#N)cc(F)c2[nH]1 [Compound 55] | 55 | 6 |  |

Now from value to compound, other results behind:

| inhibition at 1 µM (FGFR1(h)) [%] | inhibition at 1 µM (KDR(h)) [%] | SMILES | GI50 (KG1a) [nM] |
| --- | --- | --- | --- |
| 100 | 96 | Cc1cc2c(F)c(Oc3ncnc(Nc4ccc(N5CCN(C)CC5)c(F)c4)c3C#N)ccc2[nH]1 [Compound 2] | 62 |
| 1 | 4 | Cc1cc2c(F)c(Oc3ncnc(N4CCN(C)CC4)c3C#N)ccc2[nH]1 [Compound 3] |  |
| 97 | 96 | CCN1CCN(c2ccc(Nc3ncnc(Oc4ccc5[nH]c(C)cc5c4F)c3C#N)cc2F)CC1 [Compound 8] | 250 |
| 56 | 67 | Cc1cc2c(F)c(Oc3ncnc(Nc4ccc(-n5ccnc5)cc4)c3C#N)ccc2[nH]1 [Compound 12] |  |
| 48 | 85 | Cc1cc2c(F)c(Oc3ncnc(Nc4ccc(-n5ccnc5C)cc4)c3C#N)ccc2[nH]1 [Compound 13] |  |
| 94 | 96 | Cc1cc2c(F)c(Oc3ncnc(Nc4ccc(C)c(S(N)(=O)=O)c4)c3C#N)ccc2[nH]1 [Compound 15] |  |
| 70 | 42 | Cc1cc2c(F)c(Oc3ncnc(Nc4ccc(N5CCN(CC(F)(F)F)CC5)cc4)c3C#N)cc(F)c2[nH]1 [Compound 20] |  |
| 100 | 96 | Cc1cc2c(F)c(Oc3ncnc(Nc4cccc(N5CCOCC5)c4)c3C#N)ccc2[nH]1 [Compound 21] |  |
| 100 | 96 | CCN1CCN(c2cccc(Nc3ncnc(Oc4ccc5[nH]c(C)cc5c4F)c3C#N)c2)CC1 [Compound 22] | 196 |
| 98 | 96 | Cc1cc2c(F)c(Oc3ncnc(Nc4ccccc4)c3C#N)ccc2[nH]1 [Compound 23] |  |
| 99 | 96 | CC(=O)Nc1ccc(Nc2ncnc(Oc3ccc4[nH]c(C)cc4c3F)c2C#N)cc1 [Compound 25, N-(4-((5-cyano-6-((4-fluoro-2-methyl-1H-indol-5-yl)oxy)pyrimidin-4-yl)amino)phenyl)acetamide] | 30 |
| 91 | 95 | CCOc1ccc(Nc2ncnc(Oc3ccc4[nH]c(C)cc4c3F)c2C#N)cc1 [Compound 29] |  |
| 91 | 94 | Cc1cc2c(F)c(Oc3ncnc(Nc4ccc(C5CCNCC5)cc4)c3C#N)ccc2[nH]1 [Compound 30] |  |
| 100 | 95 | Cc1cc2c(F)c(Oc3ncnc(Nc4ccc(NC(=O)C5CC5)cc4)c3C#N)cc(F)c2[nH]1 [Compound 35] | 78 |
| 99 | 67 | Cc1cc2c(F)c(Oc3ncnc(Nc4ccc(C(N)=O)cc4)c3C#N)cc(F)c2[nH]1 [Compound 36] | 182 |
| 90 | 73 | Cc1cc2c(F)c(Oc3ncnc(Nc4ccc(C(=O)N(C)C)cc4)c3C#N)cc(F)c2[nH]1 [Compound 38] |  |
| 101 | 96 | Cc1cc2c(F)c(Oc3ncnc(Nc4ccc5[nH]ccc5c4)c3C#N)cc(F)c2[nH]1 [Compound 42] | 35 |
| 41 | 14 | Cc1cc2c(F)c(Oc3ncnc(Nc4ccc([N+](=O)[O-])cc4)c3C#N)cc(F)c2[nH]1 [Compound 44] |  |
| 89 | 17 | COC(=O)c1ccc(Nc2ncnc(Oc3cc(F)c4[nH]c(C)cc4c3F)c2C#N)cc1 [Compound 54] |  |
